{
  "source": "patent US12681015B2",
  "about": "“Methods for predicting patient response to DMARDs” (Queen Mary University of London, priority 2019, dated 2026)",
  "key": {"[1]": {"tested_on": "MTX-induced upregulation of SPM in human peripheral blood", "assay": "Human whole blood incubated with L002 or SB202190, then MTX; plasma SPM by LC-MS/MS", "type": "cell-based", "details": "L002 2 μM or SB202190 5 μM, then MTX 100 nM, 37° C., 45 min", "description": "(§1) Plasma was collected by centrifugation and SPM were identified and quantified using LC-MS/MS based lipid mediator profiling (see methods for details). (A) sPLS-DA score plot of identified lipid mediator concentrations (B) Contribution for the top 10 differentially regulated mediators in principle component 1. Results are representative of n=6 volunteers per group with experiments conducted on two distinct occasions. (C-G) Inflammatory arthritis was initiated in mice by the administration of arthritogenic serum on days 0 and 2. […] Disease severity was assessed by measuring (C) disease activity using a 26-point clinical score, (D) joint histology using hematoxylin and eosin staining of knee sections collected 8 days post disease initiation, original magnification=×4 and (E) body weight. (F,G) Eight days post disease initiation joints were collected, (F) leukocytes were liberated from the paws and the number of neutrophils infiltrated into the paw was determined using flow cytometry and fluorescently labelled antibodies. (G) Lipid mediators were extracted and the concentrations of LTB4 were determined using liquid chromatography tandem-mass spectrometry. C, E, F are mean±SEM and G are percentage of vehicle of n=4 mice per group and experiments were conducted on two distinct occasions. Results for D are representative of n=8 mice per group. * p<0.05 vs Vehicle group for C and E using two-way ANOVA, for F one-way ANOVA, for G using one-sample t test. F=femur; m=meniscus; PF=pannus formation; T=tibia.\nPlasma was obtained from peripheral blood of healthy volunteers, patients and mouse following centrifugation at 1500×g for 10 min at room temperature. Paws were collected and immediately transferred to liquid nitrogen prior to homogenization in 1 ml ice cold MeOH and homogenized using a glass dounce. All samples for LC-MS/MS-based profiling were extracted using solid-phase extraction columns as in Walker, M. E., Souza, P. R., Colas, R. A. & Dalli, J. “13-Series resolvins mediate the leukocyte-platelet actions of atorvastatin and pravastatin in inflammatory arthritis.” FASEB J 31, 3636-3648 (2017), the contents of which are incorporated herein by reference. Prior to sample extraction, deuterated internal standards, representing each region in the chromatographic analysis (500 pg each) were added to facilitate quantification. Samples were kept at −20° C. for a minimum of 45 min to allow protein precipitation. Supernatants were subjected to solid phase extraction, methyl formate fraction collected, brought to dryness and suspended in phase (methanol/water, 1:1, vol/vol) for injection on a Shimadzu LC-20AD HPLC and a Shimadzu SIL-20AC autoinjector, paired with a QTrap 5500 or QTrap 6500 plus (Sciex). […]"}, "[2]": {"tested_on": "inflammatory arthritis in mice", "assay": "Inflammatory arthritis in mice treated with MTX plus L002 or MTX plus SB202190", "type": "in vivo", "details": "for anti-arthritic actions of MTX: MTX 25 mg/kg plus inhibitor 20 mg/kg i.p. days 3, 5 and 7; for weight loss, a marker of disease activity / joint inflammation / joint concentrations of LTB4 / joint damage / ability of MTX to regulate neutrophil trafficking to the inflamed joint: MTX plus inhibitor 20 mg/kg; for joint inflammation: 26-point clinical score; for joint concentrations of LTB4: day 8, LC-MS/MS; for joint damage: knee histology, day 8; for ability of MTX to regulate neutrophil trafficking to the inflamed joint: paws, day 8, flow cytometry", "description": "as §1\nPlasma was obtained from peripheral blood of healthy volunteers, patients and mouse following centrifugation at 1500×g for 10 min at room temperature. Paws were collected and immediately transferred to liquid nitrogen prior to homogenization in 1 ml ice cold MeOH and homogenized using a glass dounce. All samples for LC-MS/MS-based profiling were extracted using solid-phase extraction columns as in Walker, M. E., Souza, P. R., Colas, R. A. & Dalli, J. “13-Series resolvins mediate the leukocyte-platelet actions of atorvastatin and pravastatin in inflammatory arthritis.” FASEB J 31, 3636-3648 (2017), the contents of which are incorporated herein by reference. Prior to sample extraction, deuterated internal standards, representing each region in the chromatographic analysis (500 pg each) were added to facilitate quantification. Samples were kept at −20° C. for a minimum of 45 min to allow protein precipitation. Supernatants were subjected to solid phase extraction, methyl formate fraction collected, brought to dryness and suspended in phase (methanol/water, 1:1, vol/vol) for injection on a Shimadzu LC-20AD HPLC and a Shimadzu SIL-20AC autoinjector, paired with a QTrap 5500 or QTrap 6500 plus (Sciex). An Agilent Poroshell 120 EC-C18 column (100 mm×4.6 mm×2.7 μm) was kept at 50° C. and mediators eluted using a mobile phase consisting of methanol/water/acetic acid of 20:80:0.01 (vol/vol/vol) that was ramped to 50:50:0.01 (vol/vol/vol) over 0.5 min and then to 80:20:0.01 (vol/vol/vol) from 2 min to 11 min, maintained till 14.5 min and then rapidly ramped to 98:2:0.01 (vol/vol/vol) for the next 0.1 min. This was subsequently maintained at 98:2:0.01 (vol/vol/vol) for 5.4 min, and the flow rate was maintained at 0.5 ml/min. QTrap 5500 or QTrap 6500 plus were operated using a multiple reaction monitoring method as in Walker, M. E., Souza, P. R., Colas, R. A. & Dalli, J. “13-Series resolvins mediate the leukocyte-platelet actions of atorvastatin and pravastatin in inflammatory arthritis.” FASEB J 31, 3636-3648 (2017), the contents of which are incorporated herein by reference. […]"}, "[3]": {"details": "known side effect; cited from earlier work"}},
  "data": [
    {"smiles": "COc1ccc(S(=O)(=O)ON=C2C=C(C)C(=O)C(C)=C2)cc1", "note": "[L002]", "values": [
      {"measurement": "MTX-induced upregulation of SPM", "setting": "[1]", "value": "blocking"},
      {"measurement": "concentrations of several mediators including PD1, MaR2n-3 DPA and RvD1", "setting": "[1]", "value": "decreasing"},
      {"measurement": "anti-arthritic actions of MTX", "setting": "[2]", "value": "reversed"},
      {"measurement": "weight loss, a marker of disease activity", "setting": "[2]", "value": "increase"},
      {"measurement": "joint inflammation", "setting": "[2]", "value": "increase"},
      {"measurement": "joint concentrations of LTB4", "setting": "[2]", "value": "increase"},
      {"measurement": "joint damage", "setting": "[2]", "value": "increase"},
      {"measurement": "ability of MTX to regulate neutrophil trafficking to the inflamed joint", "setting": "[2]", "value": "reversed"}
    ]},
    {"smiles": "Cc1oncc1C(=O)Nc1ccc(C(F)(F)F)cc1", "note": "[Leflunomide]", "values": [
      {"measurement": "High blood pressure, share of people", "setting": "[3]", "value": "up to 10% of people"}
    ]},
    {"smiles": "Oc1ccc(-c2nc(-c3ccncc3)c(-c3ccc(F)cc3)[nH]2)cc1", "note": "[SB202190]", "values": [
      {"measurement": "MTX-induced upregulation of SPM", "setting": "[1]", "value": "blocking"},
      {"measurement": "concentrations of several mediators including PD1, MaR2n-3 DPA and RvD1", "setting": "[1]", "value": "decreasing"},
      {"measurement": "anti-arthritic actions of MTX", "setting": "[2]", "value": "reversed"},
      {"measurement": "weight loss, a marker of disease activity", "setting": "[2]", "value": "increase"},
      {"measurement": "joint inflammation", "setting": "[2]", "value": "increase"},
      {"measurement": "joint concentrations of LTB4", "setting": "[2]", "value": "increase"},
      {"measurement": "joint damage", "setting": "[2]", "value": "increase"},
      {"measurement": "ability of MTX to regulate neutrophil trafficking to the inflamed joint", "setting": "[2]", "value": "reversed"}
    ]}
  ]
}
